pIC50: −log10 of the molar value. Values joined by “and” are separate entries in the source; they are usually repeats but may differ in a detail not shown here. Equal entries are not always repeated.
What was measured:
Format in all cases: cell-based, human
[1] = system: proliferating IMR90 cells; experiment: BrdU incorporation proliferation assay; conditions: IMR90 cells; single replicates (SUP FIG 9G)
Method: 5-bromo-2′-deoxyuridine (BrdU) incorporation was used to measure the number of cells actively replicating DNA. Cells were incubated with 10 μM BrdU (85811, Sigma) for 18 h. After that, cells were fixed with 4% Paraformaldehyde, permeabilised, blocked and then stained for immunofluorescence using BrdU primary antibody (555627 BD Pharmigen), Alexa fluor secondary for detection, and DAPI staining for cell counting. Acquisition was done with a Nikon TI2 microscope and analysis was performed with ImageJ for cell counting.

[2] = system: senescent A549 cells (etoposide-induced); experiment: Nuclei count senolytic assay, therapy-induced senescence (TIS) model, senescent cells; conditions: for % Cell Survival: senescence cells, single replicate
Method: (§1) We performed a second validation of the effectiveness of our machine learning models using a different stressor. We focused on therapy-induced senescence (TIS, Supplementary Fig. 6a), where human epithelial cancerous cells (A549) were induced to become senescent by addition of etoposide. Cells were treated with 100 μM etoposide for 48 h, followed by another three days of exposure to media in standard conditions.
(§2) We performed experimental validation of the compounds with z-score > 8 (Fig. 2e). […] We employed two cellular models of senescence: one of OIS and a second one of TIS. For the OIS case, we utilised IMR90 ER:RAS cells with 4-OHT at 100 nM. […] For the TIS model, we used A549 cells with etoposide at 100 μM. The exposure of the cells to etoposide lasted 48 h, after which period the cells were cultivated for a further three days with normal media.
(§3) IMR90 (CCL-186) human foetal lung fibroblasts and A549 (CCL-185) human lung adenocarcinoma cells were obtained from the American Type Culture Collection (ATCC, Manassas, VA). The cell lines were confirmed to be mycoplasma negative (Lonza MycoAlert, cat #LT07-118). IMR90 ER:RAS is a derivative of IMR90 cells expressing a switchable version of oncogenic H-Ras[84]. IMR90 ER:RAS and A549 cells were maintained in Dulbecco’s Modified Eagle Medium (DMEM, ThermoFisher) supplemented with foetal bovine serum (10%), L-glutamine (2 mM, ThermoFisher), and antibiotic-antimycotic solution (1%, ThermoFisher) and incubated under standard tissue culture conditions (37 °C and 5% CO2). For induction of the senescent phenotype, IMR90-ER:RAS cells were cultured in hydroxytamoxifen (4-OHT) (Sigma) added media at 100 nM final concentration. IMR90 were kept in culture for over 27 passages for replicative senescence. Cells were tested for mycoplasma on a regular basis.
(§4) Cells were seeded (50 μL per well) into 384-well plates (IMR90 ER:RAS cells in Nunc Optical Bottom Polybase Microplates [#142761, Thermo Scientific, Rochester, NY] and A549 cells in CELLSTAR Cell Culture Microplates [#781091, Greiner Bio-One, Kremsmünster, Austria]). Cells were incubated under standard tissue culture conditions for 24 h before the addition of compounds. Passage 14 IMR90 ER:RAS cells were seeded at 1300 cells per well in the control condition, and at 1600 cells per well in the senescent case. Passage 34 A549 cells were seeded at 7000 cells per well in the control condition, and at 10,000 cells per well in the senescent case.
(§5) Dose response plates were prepared with a DMSO control and a 10-point […] concentration range, and added to the compounds using a D300e digital dispenser (Tecan Trading AG, Switzerland) at a final concentration of between 10 μM and 10 nM. Every screened condition was carried out in triplicate. After 72 h of incubation with exposure to the compounds, cells were fixed by the addition of an equal volume of formaldehyde (8%, 50 μL; #BP531-500, Fisher Bioreagents, Fisher Scientific, Loughborough, Leicestershire) to the existing media, incubated at room temperature (30 min), and washed three times in phosphate-buffered saline (PBS). Cells were then permeabilised in Triton-X100 (0.1%, 50 μL) and incubated at room temperature (30 min) followed by three more washes with PBS.
(§6) Cells were stained with Hoechst 33342 for nuclei count (excitation/emission wavelength at 387/447 […], DAPI channel, original concentration at 10 mg/ml, final concentration at 2 μg/ml; H1399, Molecular Probes, Eugene, OR). The staining solution was prepared in bovine serum albumin solution (10%). The staining solution was added to each well (30 μL) and incubated in the dark at room temperature (30 min), followed by three washes with PBS and no final aspiration. Plates were foil sealed.
(§7) Plates were imaged on an ImageXpress micro XLS (Molecular Devices, Eugene, OR) equipped with a robotic plate loader (Scara4, PAA, UK).

[3] = system: non-senescent control A549 cells; experiment: Nuclei count senolytic assay, TIS model, non-senescent control cells; conditions: for % Cell Survival: control cells, single replicate
Method: as §1, §2, §3, §4, §5, §6, §7

[4] = system: p16 and p21 mRNA in IMR90 ER:RAS cells; experiment: p16 and p21 mRNA expression by RT-qPCR, OIS; conditions: ER:RAS cells; ER:RAS DMSO = 1; n 4
Method: (§8) Total RNA was isolated using RNAeasy kit (Quiagen). cDNA was generated with reverse transcriptase iScript (Bio-Rad). RT-qPCR was performed using SYBR Select Master Mix (Applied Biosystems) in OneStepPlus detection system (Applied Biosystems). Oligos for amplification were: NOXA Fw-[…] and Rv-[…]; b-ACTIN Fw-[…] and Rv-[…]; IL1a Fw-[…] and Rv- […]; IL1b Fw-[…] and Rv- […]; IL8 Fw-[…] and Rv-[…]; p16 Fw-CGGTCGGAGGCCGATCCAG and Rv- […]; p21Fw-[…] and Rv- […].

[5] = system: p16 and p21 mRNA in IMR90 cells at passage 27; experiment: p16 and p21 mRNA expression by RT-qPCR, replicative senescence; conditions: Replicative senescence; Replicative senescence DMSO = 1; n 3
Method: as §8

[6] = system: IL1α, IL1β and IL8 mRNA in IMR90 cells at passage 27; experiment: IL1α, IL1β and IL8 mRNA expression by RT-qPCR, replicative senescence; conditions: Replicative senescence, OLE group mean, DMSO = 1
Method: as §8

[7] = system: IL1α, IL1β and IL8 mRNA in IMR90 ER:RAS cells; experiment: IL1α, IL1β and IL8 mRNA expression by RT-qPCR, OIS; conditions: ER:RAS cells, RAS OLE group mean, RAS C (DMSO) = 1
Method: as §8

COc1cc([C@@H]2c3cc4c(cc3[C@@H](O[C@@H]3O[C@@H]5CO[C@@H](C)O[C@H]5[C@H](O)[C@H]3O)[C@H]3COC(=O)[C@H]23)OCO4)cc(OC)c1O [Etoposide] was tested, and the “% BrdU positive cells” value [1] was 3.24% and 11.47% and 6.41% and 6.29%.

With CC1(C)CCC(c2ccc(Cl)cc2)=C(CN2CCN(c3ccc(C(=O)NS(=O)(=O)c4ccc(N[C@H](CCN5CCOCC5)CSc5ccccc5)c(S(=O)(=O)C(F)(F)F)c4)cc3)CC2)C1 [navitoclax, reference compound] the viability at 10 µM ([2]; Homo sapiens, A549, log (dose) [M] -5, Senescent cells, mean, read-out: Mean % Cell Survival) was 6.32%, the viability at 4.68 µM ([2]; Homo sapiens, A549, log (dose) [M] -5.33, Senescent cells, mean, read-out: Mean % Cell Survival) was 13.6% and the viability at 2.19 µM ([2]; Homo sapiens, A549, log (dose) [M] -5.66, Senescent cells, mean, read-out: Mean % Cell Survival) was 17.1%. It also gave a viability at 1 µM ([2]; Homo sapiens, A549, log (dose) [M] -6, Senescent cells, mean, read-out: Mean % Cell Survival) of 27.7%, a viability at 0.468 µM ([2]; Homo sapiens, A549, log (dose) [M] -6.33, Senescent cells, mean, read-out: Mean % Cell Survival) of 43.7% and a viability at 0.219 µM ([2]; Homo sapiens, A549, log (dose) [M] -6.66, Senescent cells, mean, read-out: Mean % Cell Survival) of 65.4%. The viability at 0.1 µM ([2]; Homo sapiens, A549, log (dose) [M] -7, Senescent cells, mean, read-out: Mean % Cell Survival) was 94%, the viability at 0.0468 µM ([2]; Homo sapiens, A549, log (dose) [M] -7.33, Senescent cells, mean, read-out: Mean % Cell Survival) was 91.8% and the viability at 0.0219 µM ([2]; Homo sapiens, A549, log (dose) [M] -7.66, Senescent cells, mean, read-out: Mean % Cell Survival) was 109%. For the same molecule, the viability at 0.01 µM ([2]; Homo sapiens, A549, log (dose) [M] -8, Senescent cells, mean, read-out: Mean % Cell Survival) was 103%, the pIC50 ([2]; Homo sapiens, TIS model, etoposide-induced senescent A549, nuclei count, 72 h) was 6.36 and the “concentration at which a senolytic effect was reached” value ([2]; TIS A549, Hoechst labelling, marginal or no effect on normal cells) was 1 µM. The “% Cell Survival” value ([2]; log (dose) [M] -5) was 4.269% and 4.259% and 10.4231%, the “% Cell Survival” value ([2]; log (dose) [M] -5.33) was 11.4818% and 14.3371% and 14.9601% and the “% Cell Survival” value ([2]; log (dose) [M] -5.66) was 15.9961% and 17.9964% and 17.29%. The “% Cell Survival” value ([2]; log (dose) [M] -6) was 23.7488% and 24.4151% and 34.8866%, the “% Cell Survival” value ([2]; log (dose) [M] -6.33) was 46.0255% and 39.6521% and 45.3096% and the “% Cell Survival” value ([2]; log (dose) [M] -6.66) was 63.9352% and 60.5879% and 71.5512%. For the same molecule, the “% Cell Survival” value ([2]; log (dose) [M] -7) was 88.2728% and 86.8026% and 106.99%, the “% Cell Survival” value ([2]; log (dose) [M] -7.33) was 62.8557% and 104.139% and 108.461% and the “% Cell Survival” value ([2]; log (dose) [M] -7.66) was 92.002% and 113.377% and 120.969%. For the same molecule, the “% Cell Survival” value ([2]; log (dose) [M] -8) was 100.736% and 105.159% and 103.556%, the viability at 10 µM ([3]; Homo sapiens, A549, log (dose) [M] -5, Control cells, mean, read-out: Mean % Cell Survival) was 61.6% and the viability at 4.68 µM ([3]; Homo sapiens, A549, log (dose) [M] -5.33, Control cells, mean, read-out: Mean % Cell Survival) was 105%. It also gave a viability at 2.19 µM ([3]; Homo sapiens, A549, log (dose) [M] -5.66, Control cells, mean, read-out: Mean % Cell Survival) of 107%, a viability at 1 µM ([3]; Homo sapiens, A549, log (dose) [M] -6, Control cells, mean, read-out: Mean % Cell Survival) of 129% and a viability at 0.468 µM ([3]; Homo sapiens, A549, log (dose) [M] -6.33, Control cells, mean, read-out: Mean % Cell Survival) of 116%. For the same molecule, the viability at 0.219 µM ([3]; Homo sapiens, A549, log (dose) [M] -6.66, Control cells, mean, read-out: Mean % Cell Survival) was 109%, the viability at 0.1 µM ([3]; Homo sapiens, A549, log (dose) [M] -7, Control cells, mean, read-out: Mean % Cell Survival) was 97.7% and the viability at 0.0468 µM ([3]; Homo sapiens, A549, log (dose) [M] -7.33, Control cells, mean, read-out: Mean % Cell Survival) was 98.7%. The viability at 0.0219 µM ([3]; Homo sapiens, A549, log (dose) [M] -7.66, Control cells, mean, read-out: Mean % Cell Survival) was 96.8%, the viability at 0.01 µM ([3]; Homo sapiens, A549, log (dose) [M] -8, Control cells, mean, read-out: Mean % Cell Survival) was 98.9% and the pIC50 ([3]; Homo sapiens, TIS model, non-senescent A549, nuclei count, 72 h) was 4.99. The “% Cell Survival” value ([3]; log (dose) [M] -5) was 52.0394% and 75.3687% and 57.3758%, the “% Cell Survival” value ([3]; log (dose) [M] -5.33) was 116.878% and 75.1475% and 123.277% and the “% Cell Survival” value ([3]; log (dose) [M] -5.66) was 112.518% and 117.404% and 91.8458%. The “% Cell Survival” value ([3]; log (dose) [M] -6) was 119.058% and 135.177% and 132.987%, the “% Cell Survival” value ([3]; log (dose) [M] -6.33) was 128.692% and 108.112% and 112.083% and the “% Cell Survival” value ([3]; log (dose) [M] -6.66) was 114.276% and 101.991% and 109.489%. The “% Cell Survival” value ([3]; log (dose) [M] -7) was 92.6864% and 99.5575% and 100.964%, the “% Cell Survival” value ([3]; log (dose) [M] -7.33) was 97.6793% and 98.2301% and 100.074% and the “% Cell Survival” value ([3]; log (dose) [M] -7.66) was 95.0774% and 99.4838% and 95.7746%. For the same molecule, the “% Cell Survival” value ([3]; log (dose) [M] -8) was 98.1716% and 98.2301% and 100.445%.

In the case of COC1CC(OC2CCC3(C)C(CCC4C3CCC3(C)C(C5=CC(=O)OC5)C(OC(C)=O)CC43O)C2)OC(C)C1O (stereo not drawn) [OLE], the “p16 mRNA expression, mean (Test details, Mean 2)” value [4] was 0.5169, the “p21 mRNA expression, mean (Test details, Mean 2)” value [4] was 0.5115 and the “p16 mRNA expression, mean (Test details, Mean 2)” value [5] was 0.5298. For the same molecule, the “p21 mRNA expression, mean (Test details, Mean 2)” value [5] was 0.4442, the “Il1a mRNA expression, mean (Mean 2)” value ([6]; n=3) was 0.411 and the “Il8 mRNA expression, mean (Mean 2)” value ([6]; n=3) was 0.5871. For the same molecule, the “Il1b mRNA expression, mean (Mean 2)” value ([6]; n=4) was 0.4327, the “Il1a mRNA expression, mean (Mean 2)” value ([7]; n=4) was 0.4376 and the “Il8 mRNA expression, mean (Mean 2)” value ([7]; n=5) was 0.3662. The “Il1b mRNA expression, mean (Mean 2)” value ([7]; n=6) was 0.7128.

From paper PMC10257182, “Discovery of senolytics using machine learning” (Nature Communications, 2023)
